Reference: ChEMBL document CHEMBL4138238, “A minimalistic approach to develop new anti-apicomplexa polyamines analogs” (Eur J Med Chem, 2018)
Active and inactive are the calls of the source. The rule behind the calls is not given here.

System: not listed separately
Assay: Selectivity index, ratio of IC50 for African green monkey Vero cells to IC50 for chloroquine-sensitive Plasmodium falciparum D6
Format: toxicity
Conditions: read-out: Ratio IC50

| SMILES | selectivity ratio |
| --- | --- |
| COc1ccc(CNCCCCCCCCNCc2ccc(OC)c(O)c2)cc1O | > 2.38 |
| COc1ccc(CNCCCNCc2ccc(OC)cc2)cc1 | > 4.8 |
| COc1cc(CNCCCCCCCCCCNCc2ccc(OCc3ccccc3)c(OC)c2)ccc1OCc1ccccc1 | > 6.8 |
| COc1cc(CNCCCCCCCCCCCCNCc2ccc(OCc3ccccc3)c(OC)c2)ccc1OCc1ccccc1 | > 5.67 |
| COc1ccc(CNCCCCNCc2ccc(OC)cc2)cc1 | > 3.2 |
| COc1cc(CNCCCCCCCCNCc2ccc(OCc3ccccc3)c(OC)c2)ccc1OCc1ccccc1 | 14.6 |
| COc1ccc(CNCCCCCCCCNCc2ccc(OC)cc2)cc1 | > 8.4 |
| COc1cc(CNCCCCCCNCc2ccc(OCc3ccccc3)c(OC)c2)ccc1OCc1ccccc1 | > 31.7 |
| COc1cc(CNCCCCNCc2ccc(OCc3ccccc3)c(OC)c2)ccc1OCc1ccccc1 | > 27.4 |
| COc1ccc(CNCCCCCCCCCCNCc2ccc(OC)c(O)c2)cc1O | > 5.41 |
| c1ccc(CNCCCNCc2ccccc2)cc1 | > 7.9 |
| COc1ccc(CNCCCCCCCCCCCCNCc2ccc(OC)cc2)cc1 | > 6.8 |
| COc1ccc(CNCCCCCCCCCCNCc2ccc(OC)cc2)cc1 | > 19 |
| COc1ccc(CNCCCCCCCCCCCCNCc2ccc(OC)c(O)c2)cc1O | > 5.1 |
| COc1ccc(CNCCCCCCNCc2ccc(OC)cc2)cc1 | 2.4 |

System: not listed separately
Assay: Selectivity index, ratio of IC50 for African green monkey Vero cells to IC50 for chloroquine-resistant Plasmodium falciparum W2
Format: toxicity
Conditions: read-out: Ratio IC50

| SMILES | selectivity ratio |
| --- | --- |
| COc1ccc(CNCCCCCCCCNCc2ccc(OC)c(O)c2)cc1O | > 2.1 |
| COc1ccc(CNCCCNCc2ccc(OC)cc2)cc1 | > 2.8 |
| COc1cc(CNCCCCCCCCCCNCc2ccc(OCc3ccccc3)c(OC)c2)ccc1OCc1ccccc1 | > 7.2 |
| COc1cc(CNCCCCCCCCCCCCNCc2ccc(OCc3ccccc3)c(OC)c2)ccc1OCc1ccccc1 | > 5.3 |
| COc1ccc(CNCCCCNCc2ccc(OC)cc2)cc1 | > 2.2 |
| COc1cc(CNCCCCCCCCNCc2ccc(OCc3ccccc3)c(OC)c2)ccc1OCc1ccccc1 | 10.5 |
| COc1ccc(CNCCCCCCCCNCc2ccc(OC)cc2)cc1 | > 7.3 |
| COc1cc(CNCCCCCCNCc2ccc(OCc3ccccc3)c(OC)c2)ccc1OCc1ccccc1 | > 19 |
| COc1cc(CNCCCCNCc2ccc(OCc3ccccc3)c(OC)c2)ccc1OCc1ccccc1 | > 18.4 |
| COc1ccc(CNCCCCCCCCCCNCc2ccc(OC)c(O)c2)cc1O | > 5.7 |
| c1ccc(CNCCCNCc2ccccc2)cc1 | > 7.1 |
| COc1ccc(CNCCCCCCCCCCCCNCc2ccc(OC)cc2)cc1 | > 5.8 |
| COc1ccc(CNCCCCCCCCCCNCc2ccc(OC)cc2)cc1 | > 17 |
| COc1ccc(CNCCCCCCCCCCCCNCc2ccc(OC)c(O)c2)cc1O | > 3.5 |
| COc1ccc(CNCCCCCCNCc2ccc(OC)cc2)cc1 | 2.5 |

System: Toxoplasma gondii
Assay: Growth inhibition of GFP-fused Toxoplasma gondii RH infected in HFF at 1 uM after 3 days by fluorescence microscopic method relative to control
Format: functional
Conditions: not given

| SMILES | growth inhibition (GI) |
| --- | --- |
| CCc1nc(N)nc(N)c1-c1ccc(Cl)cc1 | inactive |
| COc1cc(CNCCCCCCCCNCc2ccc(OCc3ccccc3)c(OC)c2)ccc1OCc1ccccc1 | inactive |

Same assay, conditions: 72 h, read-out: GI

| SMILES | inhibition of growth at 1 µM [%] |
| --- | --- |
| COc1ccc(CNCCCCCCCCNCc2ccc(OC)c(O)c2)cc1O | 25 |
| COc1ccc(CNCCCNCc2ccc(OC)cc2)cc1 | 50 |
| COc1cc(CNCCCCCCCCCCNCc2ccc(OCc3ccccc3)c(OC)c2)ccc1OCc1ccccc1 | 25 |
| COc1ccc(CNCCCCCCNCc2ccc(OC)c(O)c2)cc1O | 50 |
| COc1cc(CNCCCCCCCCCCCCNCc2ccc(OCc3ccccc3)c(OC)c2)ccc1OCc1ccccc1 | 25 |
| COc1ccc(CNCCCCNCc2ccc(OC)cc2)cc1 | 25 |
| COc1ccc(CNCCCCNCc2ccc(OC)c(O)c2)cc1O | 75 |
| COc1ccc(CNCCCCCCCCNCc2ccc(OC)cc2)cc1 | 25 |
| COc1cc(CNCCCCCCNCc2ccc(OCc3ccccc3)c(OC)c2)ccc1OCc1ccccc1 | 25 |
| COc1cc(CNCCCCNCc2ccc(OCc3ccccc3)c(OC)c2)ccc1OCc1ccccc1 | 50 |
| COc1ccc(CNCCCCCCCCCCNCc2ccc(OC)c(O)c2)cc1O | 25 |
| c1ccc(CNCCCNCc2ccccc2)cc1 | 25 |
| COc1ccc(CNCCCCCCCCCCCCNCc2ccc(OC)cc2)cc1 | 75 |
| COc1cc(CNCCCNCc2ccc(OCc3ccccc3)c(OC)c2)ccc1OCc1ccccc1 | 100 |
| COc1ccc(CNCCCCCCCCCCNCc2ccc(OC)cc2)cc1 | 50 |
| COc1ccc(CNCCCCCCCCCCCCNCc2ccc(OC)c(O)c2)cc1O | 25 |
| COc1ccc(CNCCCCCCNCc2ccc(OC)cc2)cc1 | 25 |

System: Vero
Assay: Cytotoxicity against African green monkey Vero cells assessed as reduction in cell viability after 48 hrs
Format: cell-based
Conditions: Chlorocebus sabaeus

| SMILES | IC50 |
| --- | --- |
| COc1ccc(CNCCCCCCCCNCc2ccc(OC)c(O)c2)cc1O | > 4.46 mg/L |
| COc1ccc(CNCCCNCc2ccc(OC)cc2)cc1 | > 4.46 mg/L |
| COc1cc(CNCCCCCCCCCCNCc2ccc(OCc3ccccc3)c(OC)c2)ccc1OCc1ccccc1 | > 4.46 mg/L |
| COc1ccc(CNCCCCCCNCc2ccc(OC)c(O)c2)cc1O | > 4.46 mg/L |
| COc1cc(CNCCCCCCCCCCCCNCc2ccc(OCc3ccccc3)c(OC)c2)ccc1OCc1ccccc1 | > 4.46 mg/L |
| COc1ccc(CNCCCCNCc2ccc(OC)cc2)cc1 | > 4.46 mg/L |
| COc1cc(CNCCCCCCCCNCc2ccc(OCc3ccccc3)c(OC)c2)ccc1OCc1ccccc1 | 4.52 µM |
| COc1ccc(CNCCCCNCc2ccc(OC)c(O)c2)cc1O | > 4.46 mg/L |
| COc1ccc(CNCCCCCCCCNCc2ccc(OC)cc2)cc1 | > 4.46 mg/L |
| COc1cc(CNCCCCCCNCc2ccc(OCc3ccccc3)c(OC)c2)ccc1OCc1ccccc1 | > 4.46 mg/L |
| COc1cc(CNCCCCNCc2ccc(OCc3ccccc3)c(OC)c2)ccc1OCc1ccccc1 | > 4.46 mg/L |
| COc1ccc(CNCCCCCCCCCCNCc2ccc(OC)c(O)c2)cc1O | > 4.46 mg/L |
| c1ccc(CNCCCNCc2ccccc2)cc1 | > 4.46 mg/L |
| COc1ccc(CNCCCCCCCCCCCCNCc2ccc(OC)cc2)cc1 | > 4.46 mg/L |
| COc1ccc(CNCCCNCc2ccc(OC)c(O)c2)cc1O | > 4.46 mg/L |
| COc1ccc(CNCCCCCCCCCCNCc2ccc(OC)cc2)cc1 | > 4.46 mg/L |
| COc1ccc(CNCCCCCCCCCCCCNCc2ccc(OC)c(O)c2)cc1O | > 4.46 mg/L |

System: Toxoplasma gondii
Assay: Antiparasitic activity against Toxoplasma gondii RH infected in HFF treated at 4 hrs post infection measured at 5 days post infection by crystal violet staining based method
Format: functional, organism-based
Conditions: not given

| SMILES | IC50 [µM] |
| --- | --- |
| COc1cc(CNCCCNCc2ccc(OCc3ccccc3)c(OC)c2)ccc1OCc1ccccc1 | 1.53 |

System: HFF
Assay: Cytotoxicity against HFF cells at 10 uM
Format: cell-based
Conditions: human

| SMILES | Activity |
| --- | --- |
| COc1cc(CNCCCNCc2ccc(OCc3ccccc3)c(OC)c2)ccc1OCc1ccccc1 | Non-Toxic |

System: Plasmodium falciparum
Assay: microbe, parasite or virus in culture
Conditions: D6, 48 h

| SMILES | IC50 [µM] |
| --- | --- |
| COc1ccc(CNCCCCCCCCNCc2ccc(OC)c(O)c2)cc1O | 4.8 |
| COc1ccc(CNCCCNCc2ccc(OC)cc2)cc1 | 3.18 |
| COc1cc(CNCCCCCCCCCCNCc2ccc(OCc3ccccc3)c(OC)c2)ccc1OCc1ccccc1 | 1.12 |
| C[C@@H]1CC[C@H]2[C@@H](C)C(=O)O[C@@H]3O[C@@]4(C)CC[C@@H]1[C@]32OO4 [ARTEMISININ] | 0.094 |
| COc1ccc(CNCCCCCCNCc2ccc(OC)c(O)c2)cc1O | > 8 |
| COc1cc(CNCCCCCCCCCCCCNCc2ccc(OCc3ccccc3)c(OC)c2)ccc1OCc1ccccc1 | 1.28 |
| COc1ccc(CNCCCCNCc2ccc(OC)cc2)cc1 | 4.57 |
| COc1cc(CNCCCCCCCCNCc2ccc(OCc3ccccc3)c(OC)c2)ccc1OCc1ccccc1 | 0.31 |
| COc1ccc(CNCCCCNCc2ccc(OC)c(O)c2)cc1O | > 8 |
| COc1ccc(CNCCCCCCCCNCc2ccc(OC)cc2)cc1 | 1.48 |
| COc1cc(CNCCCCCCNCc2ccc(OCc3ccccc3)c(OC)c2)ccc1OCc1ccccc1 | 0.26 |
| COc1cc(CNCCCCNCc2ccc(OCc3ccccc3)c(OC)c2)ccc1OCc1ccccc1 | 0.33 |
| COc1ccc(CNCCCCCCCCCCNCc2ccc(OC)c(O)c2)cc1O | 1.97 |
| c1ccc(CNCCCNCc2ccccc2)cc1 | 2.35 |
| COc1ccc(CNCCCCCCCCCCCCNCc2ccc(OC)cc2)cc1 | 1.58 |
| COc1ccc(CNCCCNCc2ccc(OC)c(O)c2)cc1O | > 8 |
| COc1cc(CNCCCNCc2ccc(OCc3ccccc3)c(OC)c2)ccc1OCc1ccccc1 | 0.42 |
| COc1ccc(CNCCCCCCCCCCNCc2ccc(OC)cc2)cc1 | 0.6 |
| COc1ccc(CNCCCCCCCCCCCCNCc2ccc(OC)c(O)c2)cc1O | 1.97 |
| COc1ccc(CNCCCCCCNCc2ccc(OC)cc2)cc1 | 3.08 |

System: Plasmodium falciparum
Assay: microbe, parasite or virus in culture
Conditions: W2, 48 h

| SMILES | IC50 [µM] |
| --- | --- |
| COc1ccc(CNCCCCCCCCNCc2ccc(OC)c(O)c2)cc1O | 5.52 |
| COc1ccc(CNCCCNCc2ccc(OC)cc2)cc1 | 5.41 |
| COc1cc(CNCCCCCCCCCCNCc2ccc(OCc3ccccc3)c(OC)c2)ccc1OCc1ccccc1 | 1.05 |
| C[C@@H]1CC[C@H]2[C@@H](C)C(=O)O[C@@H]3O[C@@]4(C)CC[C@@H]1[C@]32OO4 [ARTEMISININ] | 0.094 |
| COc1ccc(CNCCCCCCNCc2ccc(OC)c(O)c2)cc1O | > 8 |
| COc1cc(CNCCCCCCCCCCCCNCc2ccc(OCc3ccccc3)c(OC)c2)ccc1OCc1ccccc1 | 1.37 |
| COc1ccc(CNCCCCNCc2ccc(OC)cc2)cc1 | 6.69 |
| COc1cc(CNCCCCCCCCNCc2ccc(OCc3ccccc3)c(OC)c2)ccc1OCc1ccccc1 | 0.43 |
| COc1ccc(CNCCCCNCc2ccc(OC)c(O)c2)cc1O | > 8 |
| COc1ccc(CNCCCCCCCCNCc2ccc(OC)cc2)cc1 | 1.69 |
| COc1cc(CNCCCCCCNCc2ccc(OCc3ccccc3)c(OC)c2)ccc1OCc1ccccc1 | 0.44 |
| COc1cc(CNCCCCNCc2ccc(OCc3ccccc3)c(OC)c2)ccc1OCc1ccccc1 | 0.49 |
| COc1ccc(CNCCCCCCCCCCNCc2ccc(OC)c(O)c2)cc1O | 1.88 |
| c1ccc(CNCCCNCc2ccccc2)cc1 | 2.63 |
| COc1ccc(CNCCCCCCCCCCCCNCc2ccc(OC)cc2)cc1 | 1.86 |
| COc1ccc(CNCCCNCc2ccc(OC)c(O)c2)cc1O | > 8 |
| COc1cc(CNCCCNCc2ccc(OCc3ccccc3)c(OC)c2)ccc1OCc1ccccc1 | 0.47 |
| COc1ccc(CNCCCCCCCCCCNCc2ccc(OC)cc2)cc1 | 0.67 |
| COc1ccc(CNCCCCCCCCCCCCNCc2ccc(OC)c(O)c2)cc1O | 2.88 |
| COc1ccc(CNCCCCCCNCc2ccc(OC)cc2)cc1 | 3.36 |
